Measurements: patent US20250171498A1, “ANTIBIOTIC COMPOUNDS, FORMULATIONS AND METHODS OF USE” (UNIVERSITEIT LEIDEN, priority 2022, published 2025)
Converted amounts (≈) assume the structure as drawn. Read-outs that look alike come from different tables or passages of the source. Where a SMILES comes first, the peptide text is derived from it. Bridges are numbered along the chain shown (N, C = ends). [ ]: non-standard residue; d: D form. The star is where a group is joined. S(3-Cl-benzyl) = Clc1cccc(CS*)c1; S(3-Methylbutyl) = CC(C)CCS*; dDab = NCC[C@@H](N)C(=O)O; dDap = NC[C@@H](N)C(=O)O; Dab = NCC[C@H](N)C(=O)O; Dap = NC[C@H](N)C(=O)O

Experiments:
Format in all cases: cell-based
[1] = tested on: P. Aeruginosa (ATCC 27853)
[2] = tested on: E. Coli (ATCC 25922)
[3] = tested on: A. Baumanni (ATCC 19606)
[4] = tested on: K. Pneumoniae (ATCC 13883)
[5] = tested on: renal Proximal Tubular Epithelial Cells (PTECs); test: Toxicity on renal Proximal Tubular Epithelial Cells

Compound	MIC P. Aeruginosa (ATCC 27853) ([1]; ATCC 27853)	MIC E. Coli (ATCC 25922) ([2]; ATCC 25922)	MIC A. Baumanni (ATCC 19606) ([3]; ATCC 19606)	MIC K. Pneumoniae (ATCC 13883) ([4]; ATCC 13883)	PTEC Toxicity (relative to polymyxin B) [5]	MIC P. Aeruginosa (ATCC 27853) ([1]; strain ATCC 27853)	MIC E. Coli (ATCC 25922) ([2]; strain ATCC 25922)	MIC A. Baumanni (ATCC 19606) ([3]; strain ATCC 19606)	MIC K. Pneumoniae (ATCC 13883) ([4]; strain ATCC 13883)	PTEC Toxicity (relative to polymyxin B) ([5]; relative value, polymyxin B = 1)
CC(C)C[C@@H]1NC(=O)[C@@H](Cc2ccccc2)NC(=O)[C@H](CCN)NC(=O)[C@@H](NC(=O)CNC(=O)[C@@H](NC(=O)[C@H](N)CSSCc2cccc(Cl)c2)[C@@H](C)O)CCNC(=O)[C@H]([C@@H](C)O)NC(=O)[C@H](CCN)NC(=O)[C@H](CCN)NC1=O (H-[dC](S(3-Cl-benzyl))TG[Dab][Dab][dF]L[Dab][Dab]T; lactam 4-C)	4 µg/mL (≈ 3.39 µM)	2 µg/mL (≈ 1.7 µM)	1 µg/mL (≈ 0.848 µM)	1 µg/mL (≈ 0.848 µM)	7.4					
CC(C)C[C@@H]1NC(=O)[C@@H](Cc2ccccc2)NC(=O)[C@H](CCN)NC(=O)[C@@H](NC(=O)[C@H](CN)NC(=O)[C@@H](NC(=O)[C@H](N)CSSCc2cccc(Cl)c2)[C@@H](C)O)CCNC(=O)[C@H]([C@@H](C)O)NC(=O)[C@H](CCN)NC(=O)[C@H](CCN)NC1=O (H-[dC](S(3-Cl-benzyl))T[Dap][Dab][Dab][dF]L[Dab][Dab]T; lactam 4-C)	4 µg/mL (≈ 3.31 µM)	2 µg/mL (≈ 1.65 µM)	0.5 µg/mL (≈ 0.414 µM)	0.5 µg/mL (≈ 0.414 µM)	4.8					
CC(C)C[C@@H]1NC(=O)[C@@H](Cc2ccccc2)NC(=O)[C@H](CCN)NC(=O)[C@@H](NC(=O)[C@@H](CCN)NC(=O)[C@@H](NC(=O)[C@H](N)CSSCc2cccc(Cl)c2)[C@@H](C)O)CCNC(=O)[C@H]([C@@H](C)O)NC(=O)[C@H](CCN)NC(=O)[C@H](CCN)NC1=O (H-[dC](S(3-Cl-benzyl))T[dDab][Dab][Dab][dF]L[Dab][Dab]T; lactam 4-C)	2 µg/mL (≈ 1.64 µM)	2 µg/mL (≈ 1.64 µM)	0.5 µg/mL (≈ 0.409 µM)	1 µg/mL (≈ 0.818 µM)	7.0					
CC(C)C[C@@H]1NC(=O)[C@@H](Cc2ccccc2)NC(=O)[C@H](CCN)NC(=O)[C@@H](NC(=O)[C@@H](CN)NC(=O)[C@@H](NC(=O)[C@H](N)CSSCc2cccc(Cl)c2)[C@@H](C)O)CCNC(=O)[C@H]([C@@H](C)O)NC(=O)[C@H](CCN)NC(=O)[C@H](CCN)NC1=O (H-[dC](S(3-Cl-benzyl))T[dDap][Dab][Dab][dF]L[Dab][Dab]T; lactam 4-C)	1 µg/mL (≈ 0.827 µM)	2 µg/mL (≈ 1.65 µM)	0.5 µg/mL (≈ 0.414 µM)	0.5 µg/mL (≈ 0.414 µM)	5.7					
CC(C)C[C@@H]1NC(=O)[C@@H](Cc2ccccc2)NC(=O)[C@H](CCN)NC(=O)[C@@H](NC(=O)[C@@H](CO)NC(=O)[C@@H](NC(=O)[C@H](N)CSSCc2cccc(Cl)c2)[C@@H](C)O)CCNC(=O)[C@H]([C@@H](C)O)NC(=O)[C@H](CCN)NC(=O)[C@H](CCN)NC1=O (H-[dC](S(3-Cl-benzyl))T[dS][Dab][Dab][dF]L[Dab][Dab]T; lactam 4-C)	4 µg/mL (≈ 3.31 µM)	2 µg/mL (≈ 1.65 µM)	0.5 µg/mL (≈ 0.413 µM)	1 µg/mL (≈ 0.827 µM)	6.7					
CC(C)CCSSC[C@@H](N)C(=O)N[C@H](C(=O)NCC(=O)N[C@H]1CCNC(=O)[C@H]([C@@H](C)O)NC(=O)[C@H](CCN)NC(=O)[C@H](CCN)NC(=O)[C@H](CC(C)C)NC(=O)[C@@H](Cc2ccccc2)NC(=O)[C@H](CCN)NC1=O)[C@@H](C)O (H-[dC](S(3-Methylbutyl))TG[Dab][Dab][dF]L[Dab][Dab]T; lactam 4-C)	4 µg/mL (≈ 3.55 µM)	2 µg/mL (≈ 1.78 µM)	0.5 µg/mL (≈ 0.444 µM)	0.5 µg/mL (≈ 0.444 µM)	26.8					
CC(C)CCSSC[C@@H](N)C(=O)N[C@H](C(=O)N[C@@H](CN)C(=O)N[C@H]1CCNC(=O)[C@H]([C@@H](C)O)NC(=O)[C@H](CCN)NC(=O)[C@H](CCN)NC(=O)[C@H](CC(C)C)NC(=O)[C@@H](Cc2ccccc2)NC(=O)[C@H](CCN)NC1=O)[C@@H](C)O (H-[dC](S(3-Methylbutyl))T[Dap][Dab][Dab][dF]L[Dab][Dab]T; lactam 4-C)	1 µg/mL (≈ 0.866 µM)	1 µg/mL (≈ 0.866 µM)	0.25 µg/mL (≈ 0.217 µM)	0.25 µg/mL (≈ 0.217 µM)	20.1					
CC(C)CCSSC[C@@H](N)C(=O)N[C@H](C(=O)N[C@H](CCN)C(=O)N[C@H]1CCNC(=O)[C@H]([C@@H](C)O)NC(=O)[C@H](CCN)NC(=O)[C@H](CCN)NC(=O)[C@H](CC(C)C)NC(=O)[C@@H](Cc2ccccc2)NC(=O)[C@H](CCN)NC1=O)[C@@H](C)O (H-[dC](S(3-Methylbutyl))T[dDab][Dab][Dab][dF]L[Dab][Dab]T; lactam 4-C)	1 µg/mL (≈ 0.856 µM)	2 µg/mL (≈ 1.71 µM)	0.25 µg/mL (≈ 0.214 µM)	0.5 µg/mL (≈ 0.428 µM)	7.1					
CC(C)CCSSC[C@@H](N)C(=O)N[C@H](C(=O)N[C@H](CN)C(=O)N[C@H]1CCNC(=O)[C@H]([C@@H](C)O)NC(=O)[C@H](CCN)NC(=O)[C@H](CCN)NC(=O)[C@H](CC(C)C)NC(=O)[C@@H](Cc2ccccc2)NC(=O)[C@H](CCN)NC1=O)[C@@H](C)O (H-[dC](S(3-Methylbutyl))T[dDap][Dab][Dab][dF]L[Dab][Dab]T; lactam 4-C)	1 µg/mL (≈ 0.866 µM)	2 µg/mL (≈ 1.73 µM)	0.25 µg/mL (≈ 0.217 µM)	0.5 µg/mL (≈ 0.433 µM)	9.7					
CC(C)CCSSC[C@@H](N)C(=O)N[C@H](C(=O)N[C@H](CO)C(=O)N[C@H]1CCNC(=O)[C@H]([C@@H](C)O)NC(=O)[C@H](CCN)NC(=O)[C@H](CCN)NC(=O)[C@H](CC(C)C)NC(=O)[C@@H](Cc2ccccc2)NC(=O)[C@H](CCN)NC1=O)[C@@H](C)O (H-[dC](S(3-Methylbutyl))T[dS][Dab][Dab][dF]L[Dab][Dab]T; lactam 4-C)	4 µg/mL (≈ 3.46 µM)	2 µg/mL (≈ 1.73 µM)	0.25 µg/mL (≈ 0.216 µM)	0.5 µg/mL (≈ 0.433 µM)	21.2					
CC(C)CCSSC[C@@H](N)C(=O)N[C@H](C(=O)N[C@@H](CCN)C(=O)N[C@H]1CCNC(=O)[C@H]([C@@H](C)O)NC(=O)[C@H](CCN)NC(=O)[C@H](CCN)NC(=O)[C@H](CC(C)C)NC(=O)[C@@H](Cc2ccccc2)NC(=O)[C@H](CCN)NC1=O)[C@@H](C)O [drawing 95] (H-[dC](S(3-Methylbutyl))T[Dab][Dab][Dab][dF]L[Dab][Dab]T; lactam 4-C)	1 µg/mL (≈ 0.856 µM)	1 µg/mL (≈ 0.856 µM)	1 µg/mL (≈ 0.856 µM)	0.5 µg/mL (≈ 0.428 µM)	4.7					
CC(C)CCSSC[C@@H](N)C(=O)N[C@H](C(=O)N[C@@H](CCN)C(=O)N[C@H]1CCNC(=O)[C@H]([C@@H](C)O)NC(=O)[C@H](CCN)NC(=O)[C@H](CCN)NC(=O)[C@H](CC(C)C)NC(=O)[C@@H](Cc2ccccc2)NC(=O)[C@H](CCN)NC1=O)[C@@H](C)O [drawing 140] (H-[dC](S(3-Methylbutyl))T[Dab][Dab][Dab][dF]L[Dab][Dab]T; lactam 4-C)	1 µg/mL (≈ 0.856 µM)	1 µg/mL (≈ 0.856 µM)	0.5 µg/mL (≈ 0.428 µM)	0.5 µg/mL (≈ 0.428 µM)	9.8					
Polymyxin B [reference compound]						1 µg/mL	1 µg/mL	0.25 µg/mL	0.25 µg/mL	1
